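Following 48 hours of exposure in 96-well plates, responses at five concentrations were used to interpolate endpoints linearly. TGI: total growth inhibition.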
Legend:
Experiment in all cases: NCI anticancer screen, dose series, 48 h
NCI/ADR-RES ovarian = system: NCI/ADR-RES ovarian
SK-MEL-5 melanoma = system: SK-MEL-5 melanoma
SNB-75 CNS = system: SNB-75 CNS
786-0 renal = system: 786-0 renal
SK-OV-3 ovarian = system: SK-OV-3 ovarian
MALME-3M melanoma = system: MALME-3M melanoma
EKVX NSCLC = system: EKVX NSCLC
HT29 colon = system: HT29 colon
U251 CNS = system: U251 CNS
HL-60(TB) leukemia = system: HL-60(TB) leukemia
NCI-H23 lung = system: NCI-H23 lung
CCRF-CEM leukemia = system: CCRF-CEM leukemia
SF-295 CNS = system: SF-295 CNS
SK-MEL-2 melanoma = system: SK-MEL-2 melanoma
UO-31 renal = system: UO-31 renal
A549 NSCLC = system: A549 NSCLC
OVCAR-4 ovarian = system: OVCAR-4 ovarian

| Structure (SMILES) | TGI (NCI/ADR-RES ovarian) [µM] | TGI (SK-MEL-5 melanoma) [µM] | TGI (SNB-75 CNS) [µM] | TGI (786-0 renal) [µM] | TGI (SK-OV-3 ovarian) [µM] | TGI (MALME-3M melanoma) [µM] | TGI (EKVX NSCLC) [µM] | TGI (HT29 colon) [µM] | TGI (U251 CNS) [µM] | TGI (HL-60(TB) leukemia) [µM] | TGI (NCI-H23 lung) [µM] | TGI (CCRF-CEM leukemia) [µM] | TGI (SF-295 CNS) [µM] | TGI (SK-MEL-2 melanoma) [µM] | TGI (UO-31 renal) [µM] | TGI (A549 NSCLC) [µM] | TGI (OVCAR-4 ovarian) [µM] |
| --- | --- | --- | --- | --- | --- | --- | --- | --- | --- | --- | --- | --- | --- | --- | --- | --- | --- |
| O=C1C=CC2(O)OCCN(CCO)C2=C1 (configuration not stated) (tested in a mixture with another compound) | > 100 | > 100 | > 100 | > 100 | > 100 | > 100 | > 100 | > 100 | > 100 | > 100 | > 100 | > 100 | > 100 | > 100 | > 100 | > 100 | > 100 |
| CC(C)(C)OC(=O)NC(CCC(=O)OCc1ccccc1)C(=O)NCCCO (configuration not stated) | > 100 | > 100 | > 100 | > 100 | > 100 | > 100 | > 100 | > 100 | > 100 | > 100 | > 100 | > 100 |  | > 100 | > 100 | > 100 | > 100 |
| CC1=C(C)C1[N+](=O)[O-] | > 100 | > 100 | > 100 | > 100 | > 100 | > 100 | > 100 | > 100 | > 100 | > 100 | > 100 | > 100 | > 100 |  | > 100 | > 100 | > 100 |
| O=C1CCCC1C(O)(C(F)(F)F)C(F)(F)F (configuration not stated) | > 100 | > 100 | > 100 | > 100 |  | > 100 | > 100 | > 100 | > 100 | > 100 | > 100 | > 100 | > 100 | > 100 | > 100 | > 100 | > 100 |
| CC1(c2cccc(Cl)c2)CC(c2cccc(Cl)c2)=C(C#N)C(=C(C#N)C#N)N1 (configuration not stated) | 48.1 | 28.6 | 34.3 | 30.1 | 32.8 | 35.2 | 46.5 | 91.2 | 37.8 | 46.2 | 39 | > 100 | 33.4 | 64.8 | 29.3 | 42.1 | 32.6 |
| CCN(C(C)=O)c1cnc(/C=N/NC(N)=S)c2ccccc12 | 58.6 | > 67.1 | > 100 | > 26.6 | > 100 | > 100 | > 100 | > 100 | > 100 | > 28.5 | > 100 | > 100 | > 68.9 | > 100 | 7.85 | > 88.3 | > 100 |
| COC(=O)C1(C(=O)OC)Cc2ccc(C)cc2C2=C1C(=O)c1ccccc1C2=O | 80.1 | 28.6 | 32.2 | 68.9 |  | 87.5 | 29.4 | 62.2 |  | > 100 | 46.1 | 49.4 | 36.1 | 30.7 |  | > 100 | 23.7 |
| COc1ccc(N2C(=O)C(C)SC2c2cc3cc(Br)ccc3nc2Cl)cc1 (configuration not stated) | 85.8 | > 100 | > 100 | > 100 | > 100 | > 100 | 98.5 | > 100 |  | 74.7 | > 100 | > 100 | > 100 | 48.4 | > 100 | > 100 | > 100 |
| Oc1cc(-c2ccc(Cl)cc2)cn2c1nc1ccccc12 | > 100 |  | > 100 | > 100 | > 100 | > 100 | > 100 | > 100 | > 100 | > 100 | > 100 |  | > 100 |  | > 100 |  | > 100 |
| Nc1ncnc2c1ncn2C1OC(CO)C(O)C(O)C1O (configuration not stated) | > 100 | > 100 | > 100 | > 100 |  | > 100 | > 100 | > 100 | > 100 | > 100 | > 100 | > 100 | > 100 | > 100 | > 100 | > 100 | > 100 |
| N#Cc1cc(-c2nc3c(F)cccc3s2)ccc1N | > 100 | > 100 | > 100 | > 100 | > 100 | > 100 | 0.894 | > 100 | > 100 | > 100 | > 100 | > 100 | > 100 |  | > 100 | > 100 | > 100 |
| OC1[C@H](O)CN(OCc2ccccc2)C[C@@H]1O (some centres not stated) | > 100 | > 100 | > 100 | > 100 |  | > 100 | > 100 | > 100 | > 100 | > 100 | > 100 | > 100 | > 100 | > 100 | > 100 | > 100 | > 100 |
| Cc1cc2sc(C)[n+](CCCOS(=O)(=O)[O-])c2cc1C | > 100 | > 100 | > 100 | > 100 | > 100 | > 100 | > 100 | > 100 | > 100 | > 100 | > 100 |  | > 100 | > 100 | > 100 | > 100 | > 100 |
| COc1cc(/C=C2\C(=O)N(c3ccccc3Cl)C(c3ccccc3)S2(=O)=O)cc(OC)c1OC (configuration not stated) | > 100 | 45.5 |  | > 100 | > 100 | 89.3 | > 100 | 52.2 | 81.8 | > 100 | > 100 | 48.9 | > 100 | > 100 | > 100 | > 100 | > 100 |
